In this assay the test system is Septoria tritici. Kind of assay: curative testing against Septoria tritici on wheat plants in pots, visual score of disease severity. The format is in vivo. The settings on record: Zymoseptoria tritici, adjuvant (if any) 0.1 %w/v, spray 200l/ha, read-out: % Efficacy; for Emax at 3 µg/mL: isopyrazam 3 mg per litre; for Emax at 10 µg/mL: isopyrazam 10 mg per litre; for Emax at 30 µg/mL: isopyrazam 30 mg per litre; for Emax at 100 µg/mL: isopyrazam 100 mg per litre. The procedure: The test data relate to curative testing against Septoria tritici on wheat. The wheat plants in pots are inoculated 3 to 5 days prior to spraying as indicated. The isopyrazam is formulated as an aqueous suspension concentrate formulation containing 250 g/l of isopyrazam. The suspension concentrate formulation is diluted to the concentrations of isopyrazam shown in the Tables with water prior to spraying. When adjuvant is included it is used at 0.1 %w/v in the spray dilution unless otherwise indicated. An inert non-adjuvant additive is included in all treatments to provide spray retention. The spray application is 200l/ha.
Three assessments are made per pot of wheat with […] fully randomised. The three replicate pots are visually assessed and given a score of disease severity. The percent efficacy corresponds to the reduction in average disease severity in the treated pots compared to the untreated pots as a percentage of the average disease severity of the untreated pots. Each Table represents a side-by-side experiment.

Where [1] appears, read: Table 2, treatment 4 days, assessment 18 days after inoculation.
The mark [2] stands for this setting: Table 3, treatment 4 days, assessment 17 days after inoculation.
Setting [3] is: Table 4, treatment 4 days, assessment 18 days after inoculation.
The mark [4] stands for this setting: Table 5, treatment 3 days, assessment 19 days after inoculation.
[5] abbreviates: Table 6, treatment 4 days, assessment 17 days after inoculation.
Where [6] appears, read: Table 7, treatment 4 days, assessment 18 days after inoculation.

These results are taken from patent publication EP2629618B1, “AGROCHEMICAL CO[…]” (Syngenta Limited, priority 2010, dated 2012).

Where two headings read alike, the source gives them in different places.

Regarding `CC(C)C1C2CCC1c1c(NC(=O)c3cn(C)nc3C(F)F)cccc12` (stereo not drawn) [isopyrazam, Isopyrazam], the Emax at 3 µg/mL was determined as 32% under setting [1]; 17.9% under setting [2]; 41% under setting [3]; 8.8% under setting [4]; 9.1% under setting [5]; 5.1% under setting [6]. The Emax at 10 µg/mL runs as follows: under setting [1], 36%; under setting [2], -0.53%; under setting [3], 39%; under setting [4], 9.4%; under setting [5], 6.8%; under setting [6], 15%. In addition, the Emax at 30 µg/mL is, setting by setting: under setting [1], 47%; under setting [2], 10%; under setting [3], 29%; under setting [4], 14%; under setting [5], 19%; under setting [6], -18%. Moreover, the Emax at 100 µg/mL under setting [1] was 41%; the Emax at 100 µg/mL under setting [2] came to 8.9%; the Emax at 100 µg/mL under setting [3] stood at 25%; the Emax at 100 µg/mL under setting [4] worked out at 0.59%; the Emax at 100 µg/mL under setting [5] amounted to 14%; the Emax at 100 µg/mL under setting [6] turned out to be 32%.
